# Results published in patent US11878059B2, “Sonodynamic therapy” (UNIVERSITY OF ULSTER, priority 2017, dated 2024).
# Tests used:
# [1] = tested on: BxPc-3; assay: MTT cytotoxicity of Biotin-Gem and Biotin-Gem-RB in BxPC-3 cells; type: cell-based, human; conditions: 48 h incubation
# Procedure: To ensure the antimetabolite efficacy of Biotin-Gem and Biotin-Gem-RB were unaffected by chemical modification, the cytotoxicity of the conjugates was determined in the human pancreatic adenocarcinoma cell line BxPc-3. […] These cells were seeded into 96 well plates at a density of 5000 cells per well. The plates were then incubated for 24 hours followed by the addition of 100 uL of media spiked with either Gem, Biotin-Gem or Biotin-Gem-RB. The concentrations used for Biotin-Gem were […] while for Biotin-Gem-RB, concentrations of 0.01 μM, 0.05 μM, 0.1 μM, 0.5 μM, 1 μM, 5 μM and 10 μM were investigated. Corresponding concentrations of Gem were used in each case. The cells were then further incubated for 48 hours before cell viability was determined using an MTT assay.
# [2] = tested on: Panc-1; assay: MTT assay biotin-GEM-RB vs gemcitabine hydrochloride, Panc-1; type: cell-based, human
# Procedure: (§1) Human primary pancreatic adenocarcinoma cell lines BxPc-3, Panc-1 and Mia-PaCa-2 were maintained in RPMI 1640 medium which was supplemented with 100 U/mL penicillin, […] streptomycin, and 10% fetal bovine serum (FBS) and Dulbecco's Modified Eagle's Medium (DMEM) containing 1 g/L glucose and supplemented with 100 U/mL penicillin, […] streptomycin, and 10% fetal bovine serum (FBS) respectively in a humidified 5% CO2 atmosphere at 37° C. These cells were seeded into 96 well plates at a density of 5000 cells per well. The plates were then incubated for 24 hours followed by the addition of 100 μL of media spiked with Gem or Biotin-Gem-RB at concentrations ranging from 0.001-1000 μM. The cells were then further incubated for 48 hours before cell viability was determined by an MTT assay.
# [3] = tested on: BxPc-3; assay: MTT assay biotin-GEM-RB vs gemcitabine hydrochloride, BxPc-3; type: cell-based, human; conditions: BxPc-3, 0-1000 μM, 48 h
# Procedure: as §1
# [4] = tested on: Mia-PaCa-2; assay: MTT assay biotin-GEM-RB vs gemcitabine hydrochloride, Mia-PaCa-2; type: cell-based, human; conditions: Mia-PaCa-2, 0-1000 μM, 48 h
# Procedure: as §1
# [5] = tested on: MCF-7 cells; assay: Colony forming assay in MCF-7 cells; type: cell-based, human; conditions: +US (1 MHz, 30 s, 3 Wcm^−2); PTX 1 nM, Dox 10 nM, RB 10 nM, 3 hours
# Procedure: FIG. 16 is a plot showing % survival fraction from a MCF-7 colony forming assay. Cells following treatment with PTX/Dox/RB alone (Drug combo) or following treatment with ultrasound (Drug Combo+US). After treatment cells were incubated for 8 days followed by fixation and staining. Crystal violet staining was quantified via Image J.
# In this study, the concentration of each individual drug used was intentionally sub-lethal, so that any benefit obtained by the combination treatment could easily be identified. In addition, as the action of ultrasound can influence the cellular uptake of drugs as a result of sonoporation, cells treated with Dox or PTX were also exposed to ultrasound, to control for any potential ultrasound mediated effects on cell viability as a result of sonoporation. Following treatment, cell viability was determined using a colony forming assay.
# MCF-7 cells were seeded (5×10^3) in a 96 well plate, 24 hours later cells were treated with free drug as a single treatment of PTX (1 nM), Dox (10 nM), RB (10 nM) or combination treatment for 3 hours followed by media replacement. Selected wells were treated with ultrasound delivered using a Sonidel SP100 sonoporator (1 MHz, 30 seconds, 3 Wcm^−2, duty cycle=50%, and PRF=100 Hz). The following day cells were pooled from 2 wells and seeded in a 6 well plate. Plates were placed in an incubator for 7 days. Media was removed from wells, fixation/staining solution was added at room temperature for 20 minutes. Fixative/staining solution contained: 0.5 g crystal violet (0.05%), 27 ml 37% formaldehyde, 100 ml 10×PBS (X1), 10 mL methanol (1%) and 863 mL of distilled water. Solution was removed and washed under running water. Pictures were taking using a high-resolution camera and colony formation was analysed via Image J.
# [6] = Body weight of Mia-PaCa-2 tumour bearing mice (FIG. 11b); type: in vivo, SCID mice; conditions: clinical dose 120 mg/Kg I.P., day 6
# Procedure: The microbubble suspension (6.86×10^7±1.99×10^6 MB) was delivered as a 100 uL I.V injection (PTX—2.44±0.37 mg/Kg, GEM—0.5±0.04 mg/Kg, RB—1.85±0.14 mg/Kg). Gemcitabine hydrochloride was dissolved in sterile PBS and administered as a 100 uL I.P injection (120 mg/Kg). Ultrasound treatment was delivered for 3.5 minutes at frequency of 1 MHz, an ultrasound power density of 3.5 W/cm^2 and a duty cycle of 30% immediately after injection and 30 minutes following. Error bars represent±the standard error.
# Mia-Paca-2 cells were maintained in DMEM medium and BxPc-3 cells were maintained in RPMI 1640 both supplemented with 100 U/mL penicillin, […] streptomycin, and 10% fetal bovine serum (FBS) in a humidified 5% CO2 atmosphere at 37° C. Cells (5×10^6) were re-suspended in Matrigel® and implanted subcutaneously into the rear dorsum of SCID (C.B-17/IcrHan®Hsd-Prkdcscid) mice. Tumours reached treatable size within 3 weeks. Tumour measurements were taken daily using callipers. Once the tumours had reached an average volume of 150 mm^3 animals were randomly assigned into treatment groups. Animals were anaesthetised by intraperitoneal injection of hypnorm:hypnovel:ice cold sterile water for injection (1:2:1). […] Tumour growth was monitored daily throughout the course of the treatment.
compound,measurement,setting,value
"Nc1ccn([C@@H]2O[C@H](COC(=O)OCCNC(=O)CCCCC3SCC4NC(=O)NC43)[C@@H](O)C2(F)F)c(=O)n1 (stereo partly drawn) [Biotin-Gem, (2R,3R,5R)-5-(4-amino-2-oxopyrimidin-1(2H)-yl)-4,4-difluoro-3 hydroxytetrahydrofuran-2-yl)methyl (2-(5-(2-oxohexahydro-1H-thieno[3,4-d]imidazol-4-yl)pentanamido)ethyl) carbonate]","efficacy (cell viability, MTT) compared to Gemcitabine",[1]; 0-100 μM,no statistically significant difference in efficacy
"Nc1ccn([C@@H]2O[C@H](COC(=O)CCCCCCC(=O)NCCN(CCNC(=O)CCCCCCC(=O)NCCOC(=O)c3c(Cl)c(Cl)c(Cl)c(Cl)c3-c3c4cc(I)c(=O)c(I)c-4oc4c(I)c(O)c(I)cc34)CCNC(=O)CCCCC3SCC4NC(=O)NC43)[C@@H](O)C2(F)F)c(=O)n1 (stereo partly drawn) [Biotin-Gem-RB, ((2R,3R, 5R)-5-(4-amino-2-oxopyrimidin-1 (2H)-yl)-4,4-difluoro-3-hydroxytetrahydrofuran-2-yl)methyl 4,11,19-trioxo-15-(2-(5-(2-oxohexahydro-1H-thieno[3,4-d]imidazol-4-yl)pentanamido)ethyl)-1-((2,3,4,5-tetrachloro-6-(6-hydroxy-2,4,5,7-tetraiodo-3-oxo-3H-xanthen-9-yl)benzoyl)oxy)-3,12,15,18-tetraazahexacosan-26-oate]","efficacy (cell viability, MTT) compared to Gemcitabine",[1]; 0.01-10 μM,no statistically significant difference in efficacy
same,efficacy vs gemcitabine HCl (MTT),"[2]; Panc-1, 0-1000 μM, 48 h",no decrease in efficacy
same,efficacy vs gemcitabine HCl (MTT),"[2]; Panc-1, above 10 μM",significant increase in efficacy
same,efficacy vs gemcitabine HCl (MTT),[3],no decrease in efficacy
same,efficacy vs gemcitabine HCl (MTT),[4],no decrease in efficacy
"COc1cccc2c1C(=O)c1c(O)c3c(c(O)c1C2=O)C[C@@](O)(C(=O)CO)C[C@@H]3O[C@H]1C[C@H](N)[C@H](O)[C@H](C)O1 [Dox, doxorubicin]",reduction of colony number compared to untreated cells,[5],29.3%
"CC(=O)O[C@H]1C(=O)[C@@]2(C)[C@H]([C@H](OC(=O)c3ccccc3)[C@]3(O)C[C@H](OC(=O)[C@H](O)[C@@H](NC(=O)c4ccccc4)c4ccccc4)C(C)=C1C3(C)C)[C@]1(OC(C)=O)CO[C@@H]1C[C@@H]2O [PTX, paclitaxel]",reduction of colony number compared to untreated cells,[5],7.3%
"O=C1OC2(c3cc(I)c(O)c(I)c3Oc3c2cc(I)c(O)c3I)c2c(Cl)c(Cl)c(Cl)c(Cl)c21 [RB, Rose Bengal]",reduction of colony number compared to untreated cells,[5],18.8%
Nc1ccn([C@@H]2O[C@H](CO)[C@@H](O)C2(F)F)c(=O)n1 [gemcitabine],decrease in body weight,[6],12%
